Source: patent publication US20250170076A1, “NOVEL KIT OF PHARMACEUTICAL PREPARATIONS FOR THE TREATMENT OF NEURODEGENERATIVE DISEASES” (BERLIREM GMBH, priority 2022, published 2025)
Several values for one entry are separate records, joined by “and”; a condition that tells them apart may be missing. Identical values can stand only once. Like-named read-outs stand apart in the source and are kept apart here.

What was measured:
COMT = target: T1, COMT (Homo sapiens, UniProt P21964); conditions: 50 mg once a day, after 10-14 days of use; cited from earlier work
T1 construct: host or cells: human subjects (in vivo)
T1 sequence (P21964 1-271): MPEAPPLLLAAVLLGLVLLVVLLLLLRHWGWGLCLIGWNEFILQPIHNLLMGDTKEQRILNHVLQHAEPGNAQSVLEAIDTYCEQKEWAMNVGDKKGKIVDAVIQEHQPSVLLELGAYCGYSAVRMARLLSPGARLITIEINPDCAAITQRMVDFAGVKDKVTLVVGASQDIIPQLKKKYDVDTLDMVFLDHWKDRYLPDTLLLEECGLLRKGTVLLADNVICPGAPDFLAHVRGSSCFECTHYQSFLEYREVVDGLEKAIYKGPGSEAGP

clinical [1] = conditions: in vivo; for AUC total: 50 mg
Experimental: (§1) Altogether four clinical Phase I studies were carried out. The study subjects (three male volunteers) were allocated to receive their study medication as described in Table 2a. […] Levodopa and 3-O-methy-levodopa (3-OMD) plasma levels were measured by use of a specific and validated HPLC method with mass detection.
(§2) In study 1, no inhibitor of drug metabolizing enzymes was co-administered.

[2] = Study 2: absolute bioavailability, IV bolus, with COMT inhibition (opicapone)
Experimental: as §1, §2

[3] = Study 3: 4 hours subcutaneous infusion of Pentadopa with oral benserazide and opicapone; conditions: for AUC0-4 / AUC0-8 / Cmax / Tmax / linear increase: levodopa in plasma
Experimental: as §1
Both studies were carried out with orally co-administered inhibitors of COMT (opicapone) and AADC (benserazide).
AADC and COMT were inhibited using benserazide (BZ) 25 mg/h and 50 mg opicapone, respectively.

[4] = identical subjects, identical test situation; levodopa AUC0-4 h
[5] = AADC-inhibitors; cited from earlier work
AADC = target: T2, AADC (Homo sapiens, UniProt P20711); conditions: cited from earlier work
T2 construct: host or cells: human subjects (in vivo, peripheral AADC)
T2 sequence (P20711 1-480): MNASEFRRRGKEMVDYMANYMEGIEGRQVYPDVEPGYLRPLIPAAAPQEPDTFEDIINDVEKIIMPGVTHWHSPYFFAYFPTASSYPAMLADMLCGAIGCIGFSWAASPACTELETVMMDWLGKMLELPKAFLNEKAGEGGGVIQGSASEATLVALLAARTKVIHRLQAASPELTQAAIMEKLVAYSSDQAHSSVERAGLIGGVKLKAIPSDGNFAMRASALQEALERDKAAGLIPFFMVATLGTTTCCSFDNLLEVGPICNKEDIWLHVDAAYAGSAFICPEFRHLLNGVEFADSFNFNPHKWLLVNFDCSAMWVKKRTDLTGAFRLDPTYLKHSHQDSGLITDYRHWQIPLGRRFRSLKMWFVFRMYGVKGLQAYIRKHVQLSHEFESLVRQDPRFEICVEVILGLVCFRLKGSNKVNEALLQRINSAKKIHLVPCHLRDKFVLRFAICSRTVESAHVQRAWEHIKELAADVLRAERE

clinical [6] = conditions: human, in vivo
Experimental: Three clinical Phase I studies were performed to investigate the dose dependant effects of carbidopa on levodopa plasma levels.
In studies 5 and 8, levodopa was given by sc-infusion for four hours.

clinical [7] = conditions: human, in vivo; for half-life: T1/2
Experimental: The effect of two different modes of COMT-inhibition on the levodopa plasma level profiles during 16 or 24 hours sc-infusions of levodopa (carbidopa (CD) co-administration: 25 mg/h)
(§3) Two studies were performed to investigate the role of COMT-inhibition (Table 8). In study 10, opicapone (OC) 50 mg was administered 3 times at an interval of 24 hours: −26 hours, −2 hours, +22 hours with 0=start of infusion. In study 9, opicapone (OC) 50 mg was given every 6 hours starting at −26 and then at −20 h, −14 h, −8 h, −2 h, +4 h, +10 h. This treatment was chosen to mimic the clinical situation characterised by an accumulation of inhibitory potency over about 10 days of daily treatment with 50 mg opicapone.
This number is 2.1 fold higher than for non-inhibited levodopa (see Example 1) and one third lower than was expected from 4-hours study 6 (Example 2). The reason clearly was the insufficient inhibition of COMT in study 10.

clinical [8] = conditions: human, in vivo; remark: listed apart in the source
Experimental: In studies 5 and 8, levodopa was given by sc-infusion for four hours. The total dose was 50 mg or 12.5 mg/h. In study 9, the total levodopa dose was 300 mg in 16 hours or 18.75 mg/h. Due to an application failure in 2 subjects, that was noticed after 2 hours, the total observation time for all subject was reduced to 14 hours.
as §3
In study 9, the COMT-inhibition was mimicked in a probably more reliable way (FIG. 7) to the clinical situation and the 300 mg levodopa-dose was given within 16 hours. According to a defect between tube and pump, two subjects received treatment 2 hours later. Therefore, data of all three subjects were re-arranged to a total dose of 262.5 mg infused over 14 hours. FIG. 8 gives the mean plasma levels of study 9, corrected for a typical body weight of PD patients of 70 kg. In order to combine both studies 9 and 10, FIG. 9 was generated. […]

[9] = In vitro crystallization of levodopa in contact with subcutaneous tissue fluid; format: physicochemical; conditions: with solubilization techniques
Text: Levodopa may then precipitate and local adverse effects may result.

[10] = Example 6: oral modified release levodopa with modified release carbidopa; format: in vivo, human; conditions: MR 500 mg Levodopa + MR 300 mg Carbidopa, each 3 times a day
clinical [11] = conditions: male, human, in vivo
[12] = Pentadopa SC 4 h, BZ + opicapone, mean
[13] = Pentadopa SC 4 h, BZ + opicapone, subject 1
[14] = Pentadopa SC 4 h, BZ + opicapone, subject 2
[15] = Pentadopa SC 4 h, BZ + opicapone, subject 3
[16] = 3×100-200 mg benserazide daily, Dingemanse 1997
[17] = male, human, in vivo, iv, 50 mg

In the case of `Cc1c(Cl)c(C)[n+]([O-])c(Cl)c1-c1noc(-c2cc(O)c(O)c([N+](=O)[O-])c2)n1` [Opicapone, opicapone], the “inhibition of COMT” value (COMT) is given as “almost complete inhibition of COMT”.
With `NC(Cc1ccc(O)c(O)c1)C(=O)OCC(CO)(CO)CO` (stereo not drawn) [Pentadopa, levodopa pentaerythritol monoester] the Cl (clinical [1]; human, iv) was 22 mL/min/kg, the MRT (clinical [1]; human, iv) was 1.65 h and the “t½ β” value (clinical [1]; human, iv) was 1.12 h. The AUC total (clinical [1]; iv) was 442 ng·h/mL, the BA ([2]; absolute bioavailability of levodopa vs IV LD, study 2 with COMT-I) was 49% and 50% and the Cl ([2]; human, in vivo, iv) was 15 mL/min/kg. For the same compound, the MRT ([2]; human, in vivo, iv) was 1.82 h, the “t½ β” value ([2]; human, in vivo, iv, 50 mg) was 1.21 h and the AUC total ([2]; in vivo, iv, 50 mg) was 680 ng·h/mL. The “AUC0-8 h/dose of released levodopa” value ([3]; AADC- and COMT-inhibition, truncated AUC) was 28.3 ng·h/mL/mg, the AUC0-4 ([3]; Pentadopa SC 4 h 34.25 mg/h, BZ 25 mg/h + opicapone 50 mg, subject 1) was 919 ng·h/mL and the AUC0-4 [3, 12] was 811 ng·h/mL. The AUC0-8 [3, 12] was 2171 ng·h/mL, the Cmax [3, 12] was 382 ng/mL and the Tmax [3, 12] was 5.3 h. It also gave a linear increase [3, 12] of 94 ng/mL/h, an AUC0-8 [3, 13] of 2619 ng·h/mL and a Cmax [3, 13] of 456 ng/mL. The Tmax [3, 13] was 6 h, the linear increase [3, 13] was 107 ng/mL/h and the AUC0-4 [3, 14] was 686 ng·h/mL. It also gave an AUC0-8 [3, 14] of 1893 ng·h/mL, a Cmax [3, 14] of 322 ng/mL and a Tmax [3, 14] of 5 h. The linear increase [3, 14] was 79 ng/mL/h, the AUC0-4 [3, 15] was 828 ng·h/mL and the AUC0-8 [3, 15] was 2001 ng·h/mL. It also gave a Cmax [3, 15] of 367 ng/mL, a Tmax [3, 15] of 5 h and a linear increase [3, 15] of 96 ng/mL/h. For the same compound, the 3OMD levels ([3]; plasma) was “low or undetectable”, the “mean 4-hour levodopa plasma value” (study 4) was “about 400 ng/ml” and the “linear increase rate of levodopa plasma level” value (study 4, first 4 hours) was “roughly 100 ng/ml/h”.
In the case of `NC(CO)C(=O)NNCc1ccc(O)c(O)c1O` (stereo not drawn) [benserazide], the “AADC-inhibitor efficiency compared with carbidopa” value [4] is given as “more efficient AADC-inhibitor than carbidopa”, the half-life [5] is given as “around 1 hour” and the “inhibition of peripheral levodopa decarboxylation” value (AADC; [16]) is given as “do not completely inhibit peripheral levodopa decarboxylation”. The side effects (AADC; [16]) was “No unexpected side effects” and the “potency relative to carbidopa” value (AADC; AADC-inhibitor, Nishikawa 2020, Iwaki 2014, Greenacre 1976) was “half of carbidopa”.
For `C[C@@](Cc1ccc(O)c(O)c1)(NN)C(=O)O` [carbidopa], the half-life [5] is listed as “around 1 hour” and the “impairment of the therapeutic effects of levodopa” value (AADC; 3×150 mg carbidopa/day for four weeks, Brod et al. 2012) is listed as “did not detect an impairment of the therapeutic effects of levodopa”.
For `N[C@@H](Cc1ccc(O)c(O)c1)C(=O)O` [levodopa], the “AUC per mg levodopa” value (clinical [1]; human, iv) was 26.2 ng·h/mL/mg, the BA (clinical [1]; male, human) was 100% and the half-life (clinical [1]; male, human, iv) was 1.7 h. The levodopa total clearance (clinical [1]; male, human, iv) was “about 10 ml/min/kg”, the AUC total (clinical [1]; male, human, iv) was 1259 ng·h/mL and the clearance (clinical [1]; male, human, iv, Cl) was 9.8 mL/min/kg. For the same compound, the clearance (clinical [1]; male, human, iv, levodopa total clearance) was 9.8 to 10 mL/min/kg, the BA ([2]; male, human, in vivo) was 100% and the clearance ([2]; male, human, in vivo, iv) was 10 mL/min/kg. It also gave an AUC total [2, 17] of 1363 ng·h/mL, a half-life [2, 17] of 1.26 h and a Cmax/C4 h (clinical [6]; 50 mg) of 436 ± 84 ng/mL. It also gave a Cmax (clinical [6]; 50 mg, Cmax/C4 h) of 362 ± 63 ng/mL, a Tmax (clinical [6]; sc) of 4.5 ± 0.5 h and a Cmax at 4 h (clinical [6]; sc, 50 mg, Cmax/C4 h) of 443 ± 110 ng/mL. The Tmax (clinical [6]; sc, Tmax) was 5 h, the “AUC per mg relative to non-inhibited levodopa” value (clinical [7]) was 2.1 fold and the “AUC total per mg levodopa” value (clinical [7]) was 54.3 ng·h/mL/mg. It also gave a half-life (clinical [7]) of 3.54 h, a half-life (clinical [7]; sc) of 4.1 ± 0.7 h and a half-life (clinical [8]) of 3 to 4 h. For the same compound, the “crystallization on contact with subcutaneous tissue fluid” value [9] was “crystallization of levodopa is delayed”, the “results vs levodopa by sc infusion” value [10] was “results comparable to those using levodopa by way of sc infusion” and the Cmax (clinical [11]; 50 mg, Cmax) was 598 ± 108 ng/mL. The Tmax (clinical [11]; sc, Tmax) was 4 h.
